Legend:
[1] = system: JAK1 (IL-13-stimulated STAT6 phosphorylation in BEAS-2B cells); assay: P-STAT6 BEAS-2B+IL-13 cell assay; format: cell-based, human; details: Homo sapiens, BEAS-2B, 1 h, 1 hour compound, IL-13 15 minutes, IC50 by four-parameter fit, read-out: Cellular JAK1 PSTAT6 BEAS2B + IL13
Summary of the method: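 BEAS-2B human bronchial epithelial cells preincubated 1 h at 37 °C with compound, then stimulated with human recombinant IL-13 for 15 min. Phospho-STAT6 (Tyr641) in lysates measured by MSD electrochemiluminescence immunoassay; IC50 from a four-parameter logistic fit of percent of control.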

[2] = molecular target: T1, recombinant human JAK1 kinase domain protein (Residues 854-1154) (Homo sapiens, UniProt P23458); assay: JAK1 biochemical assay (microfluidic mobility shift, peptide phosphorylation); details: 25 μM ATP, 1 nM total JAK1; Ki calculated from Ki app (tight-binding, competitive); read-out: Biochem JAK1 Ki
T1 construct: human JAK1 kinase domain protein (Residues 854-1154); purchased Proteros Biostructures GmbH (Martinsried, Germany); host or cells: insect cells
Summary of the method: (§1)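 Insect-cell-expressed human JAK1 (1 nM, residues 854-1154) or JAK2 (0.2 nM, residues 812-1132) phosphorylating 1.5 μM 5-FAM peptide Y-1B with 25 μM ATP, pH 7.2 HEPES, 30 min at 22-23 °C; twelve concentrations up to 1000 nM in duplicate. Mobility-shift % conversion fitted to tight-binding quadratic for Ki^app.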

[3] = molecular target: T2, Recombinant human JAK2 kinase domain protein (Residues 812-1132) (Homo sapiens, UniProt O60674); assay: JAK2 biochemical assay (microfluidic mobility shift, peptide phosphorylation); details: 25 μM ATP, 0.2 nM total JAK2; Ki calculated from Ki app (tight-binding, competitive); read-out: Biochem JAK2 Ki
T2 construct: human JAK2 kinase domain protein (Residues 812-1132); made in house; host or cells: insect cells
Summary of the method: as §1

T1 sequence (P23458 854-1154): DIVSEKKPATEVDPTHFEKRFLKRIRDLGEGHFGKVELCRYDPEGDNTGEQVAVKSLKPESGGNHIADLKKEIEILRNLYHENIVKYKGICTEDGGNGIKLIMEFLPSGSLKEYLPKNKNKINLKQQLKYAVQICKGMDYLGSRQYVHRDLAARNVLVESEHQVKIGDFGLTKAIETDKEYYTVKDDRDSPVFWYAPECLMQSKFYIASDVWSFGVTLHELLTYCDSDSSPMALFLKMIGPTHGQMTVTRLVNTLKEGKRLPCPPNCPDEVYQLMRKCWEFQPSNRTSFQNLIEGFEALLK
T2 sequence (O60674 812-1132): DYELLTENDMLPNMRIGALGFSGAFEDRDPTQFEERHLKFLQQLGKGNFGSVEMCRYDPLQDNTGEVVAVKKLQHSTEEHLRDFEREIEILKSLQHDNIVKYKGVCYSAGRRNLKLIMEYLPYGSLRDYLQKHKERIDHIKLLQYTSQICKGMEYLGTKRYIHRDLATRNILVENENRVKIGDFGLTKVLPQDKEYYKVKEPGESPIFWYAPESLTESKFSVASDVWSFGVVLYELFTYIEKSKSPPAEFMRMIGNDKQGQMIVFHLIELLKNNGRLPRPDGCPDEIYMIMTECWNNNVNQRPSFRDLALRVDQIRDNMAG

Structure (SMILES): CN1CCN(CCn2nnnc2Cn2cc(NC(=O)c3cnn4cccnc34)c(-c3cc(Cl)ccc3OC(F)F)n2)CC1 [Example 42, N-[3-[5-chloro-2-(difluoromethoxy)phenyl]-1-[[1-[2-(4-methylpiperazin-1-yl)ethyl]tetrazol-5-yl]methyl]pyrazol-4-yl]pyrazolo[1,5-a]pyrimidine-3-carboxamide]
- IC50 [1]: 16 nM
- Ki [2]: 0.33 nM
- Ki [3]: 0.22 nM

Structure (SMILES): CN(C)CCn1nnc(Cn2cc(NC(=O)c3cnn4cccnc34)c(-c3cc4c(cc3OC(F)F)NCCO4)n2)n1 [Example 43, N-[3-[6-(difluoromethoxy)-3,4-dihydro-2H-1,4-benzoxazin-7-yl]-1[[2-[2-(dimethylamino)ethyl]tetrazol-5-yl]methyl]pyrazol-4-yl]pyrazolo[1,5-a]pyrimidine-3-carboxamide]
- IC50 [1]: 36 nM
- Ki [2]: 0.86 nM
- Ki [3]: 0.34 nM

Structure (SMILES): CN(C)CCn1nnnc1Cn1cc(NC(=O)c2cnn3cccnc23)c(-c2cc3c(cc2OC(F)F)NCCO3)n1 [Example 44, N-[3-[6-(difluoromethoxy)-3,4-dihydro-2H-1,4-benzoxazin-7-yl]-1-[[1-[2-(dimethylamino)ethyl]tetrazol-5-yl]methyl]pyrazol-4-yl]pyrazolo[1,5-a]pyrimidine-3-carboxamide]
- IC50 [1]: 25 nM
- Ki [2]: 0.71 nM
- Ki [3]: 0.47 nM

Structure (SMILES): CN1CC(N(C)CCn2nnnc2Cn2cc(NC(=O)c3cnn4cccnc34)c(-c3cc(OC(F)F)ccc3OC(F)F)n2)C1 [Example 45, N-[3-[2,5-bis(difluoromethoxy)phenyl]-1-[[1-[2-[methyl-(1-methylazetidin-3-yl)amino]ethyl]tetrazol-5-yl]methyl]pyrazol-4-yl]pyrazolo[1,5-a]pyrimidine-3-carboxamide]
- IC50 [1]: 81 nM
- Ki [2]: 0.81 nM
- Ki [3]: 0.65 nM

Structure (SMILES): CSc1ccc(OC(F)F)c(-c2nn(Cc3nnn(C4CN(CCN(C)C)C4)n3)cc2NC(=O)c2cnn3cccnc23)c1 [Example 47, N-[3-[2-(difluoromethoxy)-5-methylsulfanyl-phenyl]-1-[[2-[1-[2-(dimethylamino)ethyl]azetidin-3-yl]tetrazol-5-yl]methyl]pyrazol-4-yl]pyrazolo[1,5-a]pyrimidine-3-carboxamide]
- IC50 [1]: 16 nM
- Ki [2]: 0.46 nM
- Ki [3]: 0.32 nM

Structure (SMILES): CN1CC(N(C)CCn2nnc(Cn3cc(NC(=O)c4cnn5cccnc45)c(-c4cc(OC(F)F)ccc4OC(F)F)n3)n2)C1 [Example 48, N-[3-[2,5-bis(difluoromethoxy)phenyl]-1-[[2-[2-[methyl-(1-methylazetidin-3-yl)amino]ethyl]tetrazol-5-yl]methyl]pyrazol-4-yl]pyrazolo[1,5-a]pyrimidine-3-carboxamide]
- IC50 [1]: 15 nM
- Ki [2]: 0.63 nM
- Ki [3]: 0.54 nM

Structure (SMILES): CN(C)CCN1CC(n2nnc(Cn3cc(NC(=O)c4cnn5cccnc45)c(-c4cc(C5CC5)ccc4OC(F)F)n3)n2)C1 [Example 50, N-[3-[5-cyclopropyl-2-(difluoromethoxy)phenyl]-1-[[2-[1-[2-(dimethylamino)ethyl]azetidin-3-yl]tetrazol-5-yl]methyl]pyrazol-4-yl]pyrazolo[1,5-a]pyrimidine-3-carboxamide]
- IC50 [1]: 16 nM
- Ki [2]: 0.5 nM
- Ki [3]: 0.44 nM

Structure (SMILES): CN(C)CCCN1CC(n2nnc(Cn3cc(NC(=O)c4cnn5cccnc45)c(-c4cc(OC(F)F)ccc4OC(F)F)n3)n2)C1 [Example 51, N-[3-[2,5-bis(difluoromethoxy)phenyl]-1-[[2-[1-[3-(dimethylamino)propyl]azetidin-3-yl]tetrazol-5-yl]methyl]pyrazol-4-yl]pyrazolo[1,5-a]pyrimidine-3-carboxamide]
- IC50 [1]: 12 nM
- Ki [2]: 0.37 nM
- Ki [3]: 0.37 nM

Structure (SMILES): CN(C)CCCCN1CC(n2nnc(Cn3cc(NC(=O)c4cnn5cccnc45)c(-c4cc(OC(F)F)ccc4OC(F)F)n3)n2)C1 [Example 55, N-[3-[2,5-bis(difluoromethoxy)phenyl]-1-[[2-[1-[4-(dimethylamino)butyl]azetidin-3-yl]tetrazol-5-yl]methyl]pyrazol-4-yl]pyrazolo[1,5-a]pyrimidine-3-carboxamide]
- IC50 [1]: 44 nM
- Ki [2]: 0.6 nM
- Ki [3]: 0.58 nM

Structure (SMILES): CN1CC(CN2CC(n3nnc(Cn4cc(NC(=O)c5cnn6cccnc56)c(-c5cc(OC(F)F)ccc5OC(F)F)n4)n3)C2)C1 [Example 56, N-[3-[2,5-bis(difluoromethoxy)phenyl]-1-[[2-[1-[(1-methylazetidin-3-yl)methyl]azetidin-3-yl]tetrazol-5-yl]methyl]pyrazol-4-yl]pyrazolo[1,5-a]pyrimidine-3-carboxamide]
- IC50 [1]: 80 nM
- Ki [2]: 0.84 nM
- Ki [3]: 0.73 nM

Structure (SMILES): CN(C)CCCN1CC(n2nnc(Cn3cc(NC(=O)c4cnn5cccnc45)c(-c4cc(C5CC5)ccc4OC(F)F)n3)n2)C1 [Example 57, N-[3-[5-cyclopropyl-2-(difluoromethoxy)phenyl]-1-[[2-[1-[3-(dimethylamino)propyl]azetidin-3-yl]tetrazol-5-yl]methyl]pyrazol-4-yl]pyrazolo[1,5-a]pyrimidine-3-carboxamide]
- IC50 [1]: 73 nM
- Ki [2]: 0.71 nM
- Ki [3]: 0.55 nM

Structure (SMILES): CN(C)C1CCN(CCn2nnc(Cn3cc(NC(=O)c4cnn5cccnc45)c(-c4cc(OC(F)F)ccc4OC(F)F)n3)n2)CC1 [Example 59, N-[3-[2,5-bis(difluoromethoxy)phenyl]-1-[[2-[2-[4-(dimethylamino)-1-piperidyl]ethyl]tetrazol-5-yl]methyl]pyrazol-4-yl]pyrazolo[1,5-a]pyrimidine-3-carboxamide]
- IC50 [1]: 62 nM
- Ki [2]: 1 nM
- Ki [3]: 0.71 nM

Structure (SMILES): CN(C)C1CCN(CCn2nnnc2Cn2cc(NC(=O)c3cnn4cccnc34)c(-c3cc(OC(F)F)ccc3OC(F)F)n2)CC1 [Example 60, N-[3-[2,5-bis(difluoromethoxy)phenyl]-1-[[1-[2-[4-(dimethylamino)-1-piperidyl]ethyl]tetrazol-5-yl]methyl]pyrazol-4-yl]pyrazolo[1,5-a]pyrimidine-3-carboxamide]
- IC50 [1]: 70 nM
- Ki [2]: 0.81 nM
- Ki [3]: 0.97 nM

Structure (SMILES): CN(C)CCCN1CC(n2nnc(Cn3cc(NC(=O)c4cnn5cccnc45)c(-c4cc(Cl)ccc4OC(F)F)n3)n2)C1 [Example 62, N-[3-[5-chloro-2-(difluoromethoxy)phenyl]1-[[2-[1-[3-(dimethylamino)propyl]azetidin-3-yl]tetrazol-5-yl]methyl]pyrazol-4-yl]pyrazolo[1,5-a]pyrimidine-3-carboxamide]
- IC50 [1]: 38 nM
- Ki [2]: 0.66 nM
- Ki [3]: 0.38 nM

Structure (SMILES): CN(C)[C@H]1C[C@@H](n2nnc(Cn3cc(NC(=O)c4cnn5cccnc45)c(-c4cc(OC(F)F)ccc4OC(F)F)n3)n2)C1 [Example 63, N-[3-[2,5-bis(difluoromethoxy)phenyl]-1-[[2-[3-(dimethylamino)cyclobutyl]tetrazol-5-yl]methyl]pyrazol-4-yl]pyrazolo[1,5-a]pyrimidine-3-carboxamide]
- IC50 [1]: 22 nM
- Ki [2]: 0.64 nM
- Ki [3]: 0.46 nM

Structure (SMILES): CN(C)[C@H]1C[C@H](n2nnc(Cn3cc(NC(=O)c4cnn5cccnc45)c(-c4cc(OC(F)F)ccc4OC(F)F)n3)n2)C1 [Example 64, N-[3-[2,5-bis(difluoromethoxy)phenyl]-1-[[2-[3-(dimethylamino)cyclobutyl]tetrazol-5-yl]methyl]pyrazol-4-yl]pyrazolo[1,5-a]pyrimidine-3-carboxamide; formic acid]
- IC50 [1]: 17 nM
- Ki [2]: 0.87 nM
- Ki [3]: 0.55 nM

Structure (SMILES): CN(C)CCCN1CC(n2nnnc2Cn2cc(NC(=O)c3cnn4cccnc34)c(-c3cc(OC(F)F)ccc3OC(F)F)n2)C1 [Example 65, N-[3-[2,5-bis(difluoromethoxy)phenyl]-1-[[1-[1-[3-(dimethylamino)propyl]azetidin-3-yl]tetrazol-5-yl]methyl]pyrazol-4-yl]pyrazolo[1,5-a]pyrimidine-3-carboxamide]
- IC50 [1]: 660 nM
- Ki [2]: 0.41 nM
- Ki [3]: 0.38 nM

Structure (SMILES): CN(C)C1CCC(n2nnc(Cn3cc(NC(=O)c4cnn5cccnc45)c(-c4cc(OC(F)F)ccc4OC(F)F)n3)n2)CC1 (stereo not drawn) [Example 66, N-[3-[2,5-bis(difluoromethoxy)phenyl]-1-[[2-[4-(dimethylamino)cyclohexyl]tetrazol-5-yl]methyl]pyrazol-4-yl]pyrazolo[1,5-a]pyrimidine-3-carboxamide]
- IC50 [1]: 32 nM
- Ki [2]: 0.41 nM
- Ki [3]: 0.3 nM

Structure (SMILES): NC1CCC(n2nnnc2Cn2cc(NC(=O)c3cnn4cccnc34)c(-c3cc(OC(F)F)ccc3OC(F)F)n2)CC1 (stereo not drawn) [Example 69, N-[1-[[1-(4-aminocyclohexyl)tetrazol-5-yl]methyl]-3-[2,5-bis(difluoromethoxy)phenyl]pyrazol-4-yl]pyrazolo[1,5-a]pyrimidine-3-carboxamide]
- IC50 [1]: ≥ 1000 nM
- Ki [2]: 0.75 nM
- Ki [3]: 0.97 nM

Structure (SMILES): CN(C)[C@H]1C[C@@H](N2CC(n3nnc(Cn4cc(NC(=O)c5cnn6cccnc56)c(-c5cc(OC(F)F)ccc5OC(F)F)n4)n3)C2)C1 [Example 71, N-[3-[2,5-bis(difluoromethoxy)phenyl]-1-[[2-[1-[3-(dimethylamino)cyclobutyl]azetidin-3-yl]tetrazol-5-yl]methyl]pyrazol-4-yl]pyrazolo[1,5-a]pyrimidine-3-carboxamide]
- IC50 [1]: 23 nM
- Ki [2]: 1.4 nM
- Ki [3]: 1.1 nM

— patent US12247032B2, “Substituted pyrazolo[1,5-a]pyrimidines as inhibitors of JAK kinases” (Genentech, Inc., priority 2019, dated 2025)
